Common to all, as to type: cell-based
One series deals with tissue explants. In words: MTT biocompatibility assay, relative viability of tissue explants. On the procedure:
Biocompatibility assays were performed by PerfectUs Biomed group (formerly Extherid) on the samples of IC-2B2 samples from Example 2, Table 2B.2
MTT assays returns relative viability of tissue through calorimetric analysis. Results are reported as percent viability compared to the non-irritative PBS control, which represents 100% viability for each of the four test conditions.
Because 100% viability for each trial is represented by the colorimetric average of the 3 explants treated with PBS. viability greater than 100% indicates UT20 formulations impart cytoprotective effects compared to the neutral PBS control.
A general note: Formazan colour is commonly taken as a measure of viable cells.

In series [1] the test system is human bladder tissue explants. In words: Preliminary histology score, ex-vivo human bladder tissue (HBT). An excerpt:
(§1) Active compositions are compared against a commercial control (UT20 58-164-4), a non-irritative control (PBS, phosphate buffered saline), a mild irritant control (1% TX-100, Triton X-100 surfactant).
(§2) The histology reflects a combination of the limits of each tissue models in addition to the reaction to variously added agents. SDS is clearly toxic to the tissue models and the addition of TX100 to the porcine vaginal mucosa removed the ability to assess unambiguously the effect of LPS with a surface active agent such as TX100.

The next series has as its system porcine vaginal mucosa. In words: Preliminary histology score, porcine tissue (PMM).
Excerpt: as §1, §2

The subject of another series is porcine nasal tissue. In words: Histology scoring on porcine nasal mucosa. On the procedure:
A panel of controls for preliminary model development was assessed for biocompatibility properties on Porcine nasal tissue via MTT, and ELISA Assays.
In Table 16, histology scoring of NS A (166A) and NS B (166B) type compositions on porcine nasal mucosa. Sample 165B is a commercial control. It is of some interest that the treatments appear to result in a reduced response with or without the addition of LPS. The detergents SDS and TX100 produce a maximal response while the LPS produces a range of responses. […] The blinded participation of the Histology expert lends additional strength to the data.

Like-named read-outs stand apart in the source and are kept apart here.

In the case of `CCCCCCCCCCCCOS(=O)(=O)[O-].[Na+]` [SDS], the “tissue viability (MTT), irritant controls” value in the series on tissue explants is listed as “decreases in tissue viability”. The “HBT Qualitative Score (histology)” value in series [1] is 4+. In the series with porcine vaginal mucosa, the “PMM Qualitative Score (histology)” value is 4+. In addition, the “Ordinal score (histology)” value in the series on porcine nasal tissue is 4.
Regarding Triton X-100 [TX100], the “tissue viability (MTT), irritant controls” value in the series with tissue explants (all test conditions) is reported as “decreases in tissue viability”. Moreover, the “histology observation, bladder sections” value in series [1] is “mild cell loss and submucosal edema”. Moreover, in the series on porcine vaginal mucosa (LPS combined with TX100), the “histology observation, porcine vaginal mucosa” value was “lost normal structure entirely”. The “Ordinal score (histology)” value in the series with porcine nasal tissue (control agent alone) is recorded as 3.
In the case of lipopolysaccharide [LPS], the “histology observation, bladder sections” value in series [1] (with addition of LPS) was “reactive damage to the bladder sections with a loss of cells on the surface of the section”. Moreover, the “Ordinal score (histology)” value in the series with porcine nasal tissue (control agent alone) was 1.

The values above are taken from patent publication US20220280679A1, “Prophylactic Gel Compositions and Use as Barriers to Bacterial and Viral Colonization” (Innovation Chemical and Enviromental Technologies, Inc., priority 2021, published 2022).
